This passage reports mortality, Activity and LC50 results from ChEMBL document CHEMBL3045590, “Design, synthesis, bioactivity, and structure-activity relationship (SAR) studies of novel benzoylphenylureas containing oxime ether group” (2008).

What all share (format): functional
In test [1] the test system is Mythimna separata. Description: Larvicidal activity against fourth-instar larval stage of Mythimna separata (Oriental armyworm) in compound-pretreated corn leaves assessed as mortality at 200 mg/l at 25 +/-1 degC after 4 days.
Test [2] relates to Mythimna separata. Description: Larvicidal activity against fourth-instar larval stage of Mythimna separata (Oriental armyworm) in compound-pretreated corn leaves assessed as mortality at 2.5 mg/l at 25 +/-1 degC after 4 days.
Test [3] relates to Culex pipiens pallens. Description: Larvicidal activity against fourth-instar larval stage of Culex pipiens pallens (mosquito) assessed as mortality at 1 mg/l at 25 +/-1 degC after 8 days. The following applies: 192 h.
The subject of test [4] is Culex pipiens pallens. Put plainly: Larvicidal activity against fourth-instar larval stage of Culex pipiens pallens (mosquito) assessed as mortality at 0.5 mg/l at 25 +/-1 degC after 8 days. As to conditions: 192 h.
The subject of test [5] is Mythimna separata. Put plainly: Larvicidal activity against fourth-instar larval stage of Mythimna separata (Oriental armyworm) in compound-pretreated corn leaves assessed as mortality at 10 mg/l at 25 +/-1 degC after 4 days.
In test [6] the test system is Culex pipiens pallens. Put plainly: Larvicidal activity against fourth-instar larval stage of Culex pipiens pallens (mosquito) assessed as mortality at 0.1 mg/l at 25 +/-1 degC after 8 days. The following applies: 192 h.
The subject of test [7] is Culex pipiens pallens. Description: Larvicidal activity against fourth-instar larval stage of Culex pipiens pallens (mosquito) assessed as mortality at 0.25 mg/l at 25 +/-1 degC after 8 days. As to conditions: 192 h.
In test [8] the test system is Mythimna separata. Put plainly: Larvicidal activity against fourth-instar larval stage of Mythimna separata (Oriental armyworm) in compound-pretreated corn leaves assessed as mortality at 100 mg/l at 25 +/-1 degC after 4 days.
For test [9], the system named is Mythimna separata. Put plainly: Larvicidal activity against fourth-instar larval stage of Mythimna separata (Oriental armyworm) in compound-pretreated corn leaves assessed as mortality at 50 mg/l at 25 +/-1 degC after 4 days.
In test [10] the test system is Mythimna separata. Description: Larvicidal activity against fourth-instar larval stage of Mythimna separata (Oriental armyworm) in compound-pretreated corn leaves assessed as mortality at 25 mg/l at 25 +/-1 degC after 4 days.
The next test relates to Cucumis sativus. Put plainly: Growth regulation of Cucumis sativus (cucumber) seeds assessed as stimulation of radicle growth at 10 mg/l at 26 degC after 5 days.
The subject of test [11] is Culex pipiens pallens. Put plainly: Larvicidal activity against fourth-instar larval stage of Culex pipiens pallens (mosquito) assessed as mortality at 0.05 mg/l at 25 +/-1 degC after 8 days. As to conditions: 192 h.
In test [12] the test system is Culex pipiens pallens. Description: Larvicidal activity against fourth-instar larval stage of Culex pipiens pallens (mosquito) assessed as mortality at 0.025 mg/l at 25 +/-1 degC after 8 days. As to conditions: 192 h.
The subject of test [13] is Mythimna separata. Description: Larvicidal activity against fourth-instar larval stage of Mythimna separata (Oriental armyworm) in compound-pretreated corn leaves assessed as mortality at 5 mg/l at 25 +/-1 degC after 4 days.
Test [14] deals with Culex pipiens pallens. Description: Larvicidal activity against fourth-instar larval stage of Culex pipiens pallens (mosquito) assessed as mortality at 0.0025 mg/l at 25 +/-1 degC after 8 days. As to conditions: 192 h.
For test [15], the system named is Culex pipiens pallens. Put plainly: Larvicidal activity against fourth-instar larval stage of Culex pipiens pallens (mosquito) assessed as mortality at 0.005 mg/l at 25 +/-1 degC after 8 days. As to conditions: 192 h.
Test [16] relates to Mythimna separata. Description: Larvicidal activity against fourth-instar larval stage of Mythimna separata (Oriental armyworm) in compound-pretreated corn leaves assessed as mortality at 1 mg/l at 25 +/-1 degC after 4 days.
Test [17] concerns Culex pipiens pallens. Description: Larvicidal activity against fourth-instar larval stage of Culex pipiens pallens (mosquito) assessed as mortality at 0.01 mg/l at 25 +/-1 degC after 8 days. The following applies: 192 h.
Test [18] concerns Mythimna separata. Description: Larvicidal activity against fourth-instar larval stage of Mythimna separata (Oriental armyworm) in compound-pretreated corn leaves assessed as mortality at 25 +/-1 degC after 4 days.

In brackets after ≈: the same amount, converted by molar mass.

With `COC(=O)CO/N=C/c1ccc(NC(=O)NC(=O)c2c(F)cccc2F)cc1`, in the test with Mythimna separata [1], the mortality (as a rule, the share of the test organisms that died) at 200 µg/mL is 90%. In addition, in the test on Mythimna separata [2], the mortality at 2.5 µg/mL is 0%. Also, the mortality at 1 µg/mL in the test on Culex pipiens pallens [3] was determined as 100%. The mortality at 0.5 µg/mL in the test with Culex pipiens pallens [4] came to 100%. For the same compound, in the test with Mythimna separata [5], the mortality at 10 µg/mL stood at 10%. Besides, the mortality at 0.1 µg/mL with Culex pipiens pallens [6] was 0%. For the same compound, in the test on Culex pipiens pallens [7], the mortality at 0.25 µg/mL is 80%. In addition, the mortality at 100 µg/mL in the test with Mythimna separata [8] came out at 80%. Besides, in the test on Mythimna separata [9], the mortality at 50 µg/mL came to 56.7%. The mortality at 25 µg/mL with Mythimna separata [10] is 30%.

Regarding `COCCO/N=C/c1ccc(NC(=O)NC(=O)c2c(F)cccc2F)cc1`, the mortality at 200 µg/mL with Mythimna separata [1] was 40%. In the test with Culex pipiens pallens [3], the mortality at 1 µg/mL turned out to be 100%. In addition, the mortality at 0.5 µg/mL in the test on Culex pipiens pallens [4] was determined as 0%. The Activity in the test with Cucumis sativus is 30%. For the same compound, in the test with Mythimna separata [8], the mortality at 100 µg/mL came out at 10%. Moreover, the mortality at 50 µg/mL with Mythimna separata [9] is 0%.

For the compound `CCCCO/N=C/c1ccc(NC(=O)NC(=O)c2c(F)cccc2F)cc1`, the mortality at 200 µg/mL in the test with Mythimna separata [1] was determined as 50%. In the test with Culex pipiens pallens [3], the mortality at 1 µg/mL was 100%. In the test with Culex pipiens pallens [4], the mortality at 0.5 µg/mL came out at 100%. For the same compound, in the test on Cucumis sativus, the Activity is reported as 50%. The mortality at 0.05 µg/mL in the test on Culex pipiens pallens [11] is 100%. Further, in the test with Culex pipiens pallens [6], the mortality at 0.1 µg/mL amounted to 100%. Moreover, in the test on Culex pipiens pallens [7], the mortality at 0.25 µg/mL was 100%. Moreover, the mortality at 100 µg/mL in the test with Mythimna separata [8] turned out to be 40%. Besides, the mortality at 50 µg/mL with Mythimna separata [9] was 0%. Also, in the test with Culex pipiens pallens [12], the mortality at 0.025 µg/mL was 0%.

As for `CCC(C)O/N=C/c1ccc(NC(=O)NC(=O)c2c(F)cccc2F)cc1` (stereo unspecified), in the test with Mythimna separata [2], the mortality at 2.5 µg/mL came out at 30%. In the test on Mythimna separata [13], the mortality at 5 µg/mL was 50%. Moreover, in the test with Culex pipiens pallens [14], the mortality at 0.0025 µg/mL worked out at 10%. Besides, the mortality at 0.05 µg/mL in the test with Culex pipiens pallens [11] amounted to 100%. Also, the mortality at 0.005 µg/mL in the test with Culex pipiens pallens [15] was determined as 20%. For the same compound, the mortality at 10 µg/mL in the test on Mythimna separata [5] is 80%. Moreover, in the test with Culex pipiens pallens [6], the mortality at 0.1 µg/mL worked out at 100%. In addition, the mortality at 1 µg/mL in the test with Mythimna separata [16] was found to be 0%. Besides, in the test on Culex pipiens pallens [17], the mortality at 0.01 µg/mL was determined as 40%. In the test with Culex pipiens pallens [12], the mortality at 0.025 µg/mL turned out to be 100%. The mortality at 25 µg/mL in the test with Mythimna separata [10] turned out to be 100%.

For the compound `CCCC(C)O/N=C/c1ccc(NC(=O)NC(=O)c2c(F)cccc2F)cc1` (stereo unspecified), the mortality at 2.5 µg/mL in the test on Mythimna separata [2] was determined as 0%. Besides, the Activity in the test on Cucumis sativus turned out to be 45%. The mortality at 0.0025 µg/mL in the test on Culex pipiens pallens [14] came to 10%. Further, the mortality at 0.05 µg/mL in the test with Culex pipiens pallens [11] stood at 100%. Moreover, the mortality at 0.005 µg/mL in the test with Culex pipiens pallens [15] turned out to be 20%. Moreover, in the test on Mythimna separata [5], the mortality at 10 µg/mL turned out to be 20%. Also, the mortality at 0.1 µg/mL in the test with Culex pipiens pallens [6] was determined as 100%. The mortality at 0.01 µg/mL in the test with Culex pipiens pallens [17] turned out to be 40%. The mortality at 50 µg/mL in the test with Mythimna separata [9] worked out at 80%. The mortality at 0.025 µg/mL with Culex pipiens pallens [12] came out at 100%. In the test on Mythimna separata [10], the mortality at 25 µg/mL came out at 70%.

Take `CC(C)CO/N=C/c1ccc(NC(=O)NC(=O)c2c(F)cccc2F)cc1`: the mortality at 2.5 µg/mL in the test on Mythimna separata [2] came out at 0%. In addition, in the test with Culex pipiens pallens [3], the mortality at 1 µg/mL amounted to 100%. Moreover, the mortality at 0.5 µg/mL in the test on Culex pipiens pallens [4] is 100%. The Activity in the test on Cucumis sativus was determined as 45%. For the same compound, the mortality at 0.05 µg/mL with Culex pipiens pallens [11] came to 10%. In addition, in the test on Culex pipiens pallens [6], the mortality at 0.1 µg/mL was determined as 100%. In the test on Culex pipiens pallens [7], the mortality at 0.25 µg/mL was found to be 100%. Also, the mortality at 100 µg/mL with Mythimna separata [8] amounted to 100%. Moreover, the mortality at 0.01 µg/mL with Culex pipiens pallens [17] was found to be 0%. Further, the mortality at 50 µg/mL in the test with Mythimna separata [9] turned out to be 80%. In addition, the mortality at 0.025 µg/mL in the test on Culex pipiens pallens [12] was 10%. Besides, the mortality at 25 µg/mL with Mythimna separata [10] is 30%.

Regarding `O=C(NC(=O)c1c(F)cccc1F)Nc1ccc(/C=N/OC2CCCC2)cc1`, in the test with Mythimna separata [1], the mortality at 200 µg/mL is 70%. Also, the mortality at 1 µg/mL in the test on Culex pipiens pallens [3] was 100%. The mortality at 0.5 µg/mL in the test on Culex pipiens pallens [4] came out at 100%. For the same compound, in the test on Cucumis sativus, the Activity is listed as 85%. In the test with Culex pipiens pallens [11], the mortality at 0.05 µg/mL stood at 10%. In the test with Culex pipiens pallens [6], the mortality at 0.1 µg/mL amounted to 100%. For the same compound, the mortality at 0.25 µg/mL with Culex pipiens pallens [7] came to 100%. Also, the mortality at 100 µg/mL with Mythimna separata [8] was found to be 20%. The mortality at 50 µg/mL in the test with Mythimna separata [9] was found to be 0%. The mortality at 0.025 µg/mL in the test on Culex pipiens pallens [12] was found to be 0%.

As to `O=C(NC(=O)c1ccccc1Cl)Nc1ccc(Cl)cc1` [CHLORBENZURON], the LC50 (usually the concentration lethal to half of the exposed cells or organisms) with Mythimna separata [18] is 2.29 mg/L (≈ 7.41 µM).
